Source: US20250327027A1, “METHODS TO GENERATE ENHANCED TUMOR INFILTRATING LYMPHOCYTES THROUGH MICROFLUIDIC DELIVERY” (STEMCELL TECHNOLOGIES CANADA INC., priority 2021, published 2025)
Several values for one entry are separate records, joined by “and”; a condition that tells them apart may be missing. Equal values may be shown once.

Columns and labels:
post-REP TILs [1] = experiment: Engineered TIL resistance to intrinsic apoptosis induced by Venetoclax and S63548 (Apotracker, Bcl-2 FACS); type: cell-based, human
Procedure: Fresh post-REP TILs were collected from a 6-well G-Rex plate, centrifuged at 400 rcf at room temperature, and then washed and resuspended to 3-10M/mL in AIM V and transferred to a T25 flask and cultured at 37° C. for 24 hr. The cells were then prepared for squeeze-processing. The cells were counted, filtered through a 40-um cell strainer, washed, and the concentration was adjusted to 60M/mL by adding XVivo-15.
As shown above in Table 13, Group A was used as a control (i.e., not contacted with any payload and not squeeze processed). Group 13 was squeeze processed without any payload at room temperature using a microfluidic constriction (70 μm depth, 4.5 un width, and 10 μm length) at 30 psi. Groups C-H were squeeze processed at room temperature with the payloads shown above, i.e., Group C: mbIL-7 mRNA; Group D: Bcl-2 mRNA; Group E: mbIL-7 mRNA+Bcl-2 mRNA; Group F: mbIL-2 mRNA; Group G: mbIL-2 mRNA+Bcl-2 mRNA; Group H: mbIL-2 mRNA+mbIL-7 mRNA+Bcl-2 mRNA. Groups C-H were squeeze processed using the same conditions as in Group B (i.e., microfluidic constriction: 70 μm depth, 4.5 μm width, and 10 μm length; at 30 psi). […]
At 24 hours, 200 ul of cells were aspirated and centrifuged at 400 ref for 4 minutes at room temperature. […] The cells were then analyzed using an Attune Flow cytometer.

TILs = experiment: Effect of cytokine (IL-2 or IL-15) during TIL expansion (colorectal tumor); type: cell-based; details: for Cell Count on Day 13 / Viability on Day 13: replicate wells
Procedure: Briefly, freshly resected colorectal tumor was rinsed in 1× Hank's Balanced Salt Solution (HBSS) with 10 µg/mL gentamicin and dissected into 8-27 mm^3 fragments using a forceps and scalpel. […] The G-Rex6M plate was then placed in a 37° C., 5% CO2 incubator for 3 days.
On day 3, the G-Rex6M plate was removed from the incubator. […] The G-Rex6M plate was returned to the 37° C., 5% CO2 incubator. On day 7 and 10, the G-Rex6M plate was removed from the incubator. […] The G-Rex6M plate was returned to the 37° C., 5% CO2 incubator.
[…] The number and viability of the TILs was assessed using a NucleoCounter NC-200.

[2] = test system: melanoma and colorectal TILs; experiment: Post thaw analysis of cryopreserved squeeze processed TILs (effect of DMSO and HSA); type: cell-based; details: DMSO 0% to 5%
Procedure: To evaluate whether freeze-thaw (including any effect from one or more of the cryopreservatives) has an effect on the squeeze processed TILs described herein, the following methods were used and the mRNA translation and phenotypic expression were assessed. Briefly, cryopreserved, squeezed melanoma and colorectal TILs were thawed and resuspended in CTS OpTmizer media. Post thaw cell recovery and viability were measured via NC-200. Cells were plated in tissue culture-treated plates and incubated for 4, 24 hours, and 8 days in a 37° C. incubator. The TILs were squeezed were assessed at each time point including t=0 (immediately post thaw) by flow cytometry for viability, surface levels of mbIL-2 and mbIL-12, and phenotypic markers such as CCR7, CD45RO, CD62L, CD127, KLRG-1, CD25, CD69, CD39, CD103, and CD25.
To assess the potential impact from DMSO, the following TILs were formulated in varying concentrations of DMSO (i.e., 0%, 1.25%, 2.5%, and 5%): (1) TILs squeeze processed with mRNA encoding membrane-bound LL-2 and mRNA encoding IL-12; and (2) non-squeeze processed TILs. Each of the formulated samples also contained 5% human serum albumin. Then, the TILs were cryopreserved and subsequently thawed as described above.

post-REP TILs [3] = experiment: mbIL-7 and Bcl-2 engineered TILs resistance to rhIL-7 sink effect (viability); type: cell-based, human; details: day 5; 250 μg/mL mbIL-7 mRNA
Procedure: Three 50M cell vials were thawed and diluted with FACs buffer. […] Cells were transferred to a T75 flask and cultured at 37° C. To allow the cells to recover from thaw, cells were cultured for 72 hr.
Cells were prepared for squeeze-processing. Cells were collected, centrifuged at 400 rcf at room temperature, and then washed, resuspended to 3-10M/mL in AIM V media without rhIL-2 to remove rhIL-2-dependent support prior to squeeze processing, transferred to a T25 flask, and cultured at 37° C. for 24 hours. The cells were then counted, filtered through a 40-um cell strainer, washed, and the concentration was adjusted to 50M/mL by adding XVivo-15.
As shown above in Table 19, Group A was used as a control (i.e., not contacted with any payload and not squeeze processed). Group 13 was squeeze processed without any payload at room temperature using microfluidic constrictions (70 μm depth, 4.5 m width, and 10 μm length) at 30 psi. […]
At days 1 and 5, 200 ul of cells were aspirated and centrifuged at 400 rcf for 4 minutes at room temperature. […] The cells were then analyzed using an Attune Flow cytometer.

post-REP TILs [4] = experiment: Proliferative capacity of CD62L positive mbIL-2 and mbIL-12 engineered TILs; type: cell-based, human; details: baseline CD62L positive and baseline CD62L negative fractions; day 4
Procedure: Fresh TILs from two donors on day 14 of REP were prepared for squeeze-processing Donors were processed in parallel throughout the experiment. TILs were centrifuged at 400 rcf for 4 minutes at room temperature. The supernatant was aspirated, and the cell populations were separately resuspended in 1 mL FACs buffer Cells were incubated at 4 C for 20 minutes with fluorescent anti-human antibody targeting CD62L. After incubation 150 μL of FACs isolation buffer were added to each sample and the samples were spun at 400 rcf for 4 minutes. Cells were then isolated using magnetic beads that select based on fluorescence as a proxy for CD62L expression. Cell fractions were incubated for 20 minutes at 37 C with 1 μM final cytoplasmic dyes; CD62L positive cells were incubated with dye that excites/emits at 405/450 nm and CD62L negative cells were incubated with dye that excites/emits at […]. The cells were then pooled, counted, filtered through a 40-um cell strainer, washed, and the concentration was adjusted to 50-80M/mL by adding XVivo-15.
As shown above in Table 18, Groups A and E were used as controls (i.e., not contacted with any payload and not squeeze processed). […]
At days 1, 4, and 6, 200 ul of cells were aspirated and centrifuged at 400 rcf for 4 minutes at room temperature. […] The cells were then analyzed using an Attune Flow cytometer.

CC1(C)CCC(CN2CCN(c3ccc(C(=O)NS(=O)(=O)c4ccc(NCC5CCOCC5)c([N+](=O)[O-])c4)c(Oc4cnc5[nH]ccc5c4)c3)CC2)=C(c2ccc(Cl)cc2)C1 [Venetoclax]
apoptosis as measured by Apotracker dye (post-REP TILs [1]; 10, 100 or 1000 nM each of Venetoclax and S63548, 24 hours): induced apoptosis
concentration with strongest dynamic range of cell killing (post-REP TILs [1]; Venetoclax and S63548 together): 10 nM

IL-15: recombinant IL-15 added to culture media
Cell Count on Day 13 (TILs; 500 U/mL IL-15): 1.92 × 10^7 and 8.32 × 10^6
Viability on Day 13 (TILs; 500 U/mL IL-15): 96.5% and 93.3%
Cell Count on Day 13 (TILs; 3,000 U/mL IL-15): 3.34 × 10^6 and 2.96 × 10^7
Viability on Day 13 (TILs; 3,000 U/mL IL-15): 94.8% and 91.3%
TIL expansion in culture (TILs; colorectal tumor fragments): promote TIL expansion

C[S+](C)[O-] [DMSO]
translation of the delivered mRNAs post-thaw [2]: did not have a negative impact on the translation of the delivered mRNAs
viability over time after thaw ([2]; squeeze-processed and unprocessed TILs): less DMSO also led to lower viability over time after thaw

B1: rhIL-7: recombinant human (rh) IL-7 (protein, UniProt P13232 26-177, looked up)
Interleukin-7: DCDIEGKDGKQYESVLMVSIDQLLDSMKEIGSNCLNNEFNFFKRHICDANKEGMFLFRAARKLRQFLKMNSTGDFDLHLLKVSEGTTILLNCTGQVKGRKPAALGEAQPTKSLEENKSLKEQKKLNDLCFLKRLLQEIKTCWNKILMGTKEH
rhIL-7 support giving viability equal to mbIL-7-engineered TILs (post-REP TILs [3]): 10 ng/mL

B2: rhIL-12: recombinant human IL-12 added to culture (protein, UniProt P29459 23-219; P29460 23-328, looked up)
Interleukin-12 subunit alpha: RNLPVATPDPGMFPCLHHSQNLLRAVSNMLQKARQTLEFYPCTSEEIDHEDITKDKTSTVEACLPLELTKNESCLNSRETSFITNGSCLASRKTSFMMALCLSSIYEDLKMYQVEFKTMNAKLLMDPKRQIFLDQNMLAVIDELMQALNFNSETVPQKSSLEEPDFYKTKIKLCILLHAFRIRAVTIDRVMSYLNAS
Interleukin-12 subunit beta: IWELKKDVYVVELDWYPDAPGEMVVLTCDTPEEDGITWTLDQSSEVLGSGKTLTIQVKEFGDAGQYTCHKGGEVLSHSLLLLHKKEDGIWSTDILKDQKEPKNKTFLRCEAKNYSGRFTCWWLTTISTDLTFSVKSSRGSSDPQGVTCGAATLSAERVRGDNKEYEYSVECQEDSACPAAEESLPIEVMVDAVHKLKYENYTSSFFIRDIIKPDPPKNLQLKPLKNSRQVEVSWEYPDTWSTPHSYFSLTFCVQVQGKSKREKKDRVFTDKTSATVICRKNASISVRAQDRYYSSSWSEWASVPCS
CD62L positive cells (post-REP TILs [4]): enriched
